US20050043292A1, “Fluorinated lysine derivatives as dipeptidyl peptidase IV inhibitors” (Pfizer Inc, priority 2003, published 2005)
Structures can show the parent of a compound that is named as a salt.

Target: T1, DPP-IV (Homo sapiens, UniProt P27487)
T1 construct: purchased Enzyme Systems Products SPE-01
Test: In vitro Assay for Dipeptidyl Peptidase Inhibition
Assay type: biochemical
Conditions: in vitro activity, Gly-Pro-4-methoxy-β-naphthylamide substrate, overnight at 37° C., read-out: IC50 (concentration of test compound required for 50% inhibition)
Method: 150 μL of an enzyme-substrate solution is pipetted into microtiter wells of a polystyrene 96-well plate, and maintained at 4° C. The enzyme-substrate solution comprises 50 μM Gly-Pro4-methoxy B naphthylamide HCl in 50 mM Tris assay buffer pH 7.3 containing 0.1M sodium chloride, 0.1% (v/v) Triton and 50 μU/mL DPP-IV (Enzyme Systems Products Cat#SPE-01, DPP-IV 5 mU/mL stock). 5μL/well of compounds of Formula I are added, bringing the final compound of Formula I concentrations to 3 μM-10 nM per well.
Controls. Enzyme is omitted from four (4) wells, as a reagent blank. 5 μL of 3 mM Diprotin A is added to four wells as a positive quality control, providing a final Diprotin A concentration of 100 μM. To measure total enzyme activity (i.e. a negative control), without the influence of any compounds of Formula I, 5 μL of distilled water is added to four wells.
The entire assay is incubated overnight (about 14-18 hours) at 37° C.

T1 sequence (P27487 whole entry, species assumed): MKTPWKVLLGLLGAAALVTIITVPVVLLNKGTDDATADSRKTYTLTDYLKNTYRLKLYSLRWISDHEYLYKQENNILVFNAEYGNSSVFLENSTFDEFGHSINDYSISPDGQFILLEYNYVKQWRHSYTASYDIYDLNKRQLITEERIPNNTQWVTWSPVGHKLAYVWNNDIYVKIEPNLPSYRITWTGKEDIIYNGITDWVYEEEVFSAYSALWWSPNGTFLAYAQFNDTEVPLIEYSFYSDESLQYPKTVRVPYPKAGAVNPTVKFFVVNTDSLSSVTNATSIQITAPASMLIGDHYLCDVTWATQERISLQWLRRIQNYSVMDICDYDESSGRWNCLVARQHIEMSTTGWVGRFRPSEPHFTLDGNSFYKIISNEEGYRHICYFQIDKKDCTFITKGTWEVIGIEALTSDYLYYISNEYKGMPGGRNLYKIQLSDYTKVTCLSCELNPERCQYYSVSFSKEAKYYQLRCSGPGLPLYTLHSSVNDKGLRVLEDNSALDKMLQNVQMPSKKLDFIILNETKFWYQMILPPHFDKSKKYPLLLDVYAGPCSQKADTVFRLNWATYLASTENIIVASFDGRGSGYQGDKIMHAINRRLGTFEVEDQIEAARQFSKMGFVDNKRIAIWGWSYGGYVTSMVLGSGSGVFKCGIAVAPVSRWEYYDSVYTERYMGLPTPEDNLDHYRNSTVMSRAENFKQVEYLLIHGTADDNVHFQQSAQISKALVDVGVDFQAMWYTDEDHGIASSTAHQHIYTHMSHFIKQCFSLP

IC50: ~1400 nM
Structure (SMILES): N[C@@H](CCCCNC(=O)COc1ccccc1)C(=O)N1CC(F)(F)C(F)(F)C1 [Example 6, (S)-N-[5-Amino-6-oxo-6-(3,3,4,4-tetrafluoro-pyrrolidin-1-yl)-hexyl]-2-phenoxy-acetamide Hydrochloride]
